Data taken from US7655392B2, “Quenching methods for red blood cell inactivation process” (priority 2004, dated 2010).
“And” between values parts separate entries of the source, which are not always exact repeats. Equal entries are not always repeated. Where two headings read alike, the source gives them in different places.

System: red blood cells
Assay type: cell-based
Protocol: In another assay, the rabbit polyclonal sera may be reacted with treated red blood cells. After washing off unbound antibody, a FITC labeled goat anti-rabbit Fab′2 fragment (anti H+L chains, Caltag) is added. The binding of FITC label to the red blood cells correlates with the amount of acridine bound to the red blood cell surface, and is assessed by FACScan™ analysis (Becton, Dickinson and Co., NJ). The relative modification of the red blood cells is determined from the FACScan™ mean fluorescence value.
A 20 mL sample of leukoreduced whole blood (Blood Source, Sacramento, Calif.) was centrifuged at 4,100×g for 5 minutes at room temperature in each of four 50 mL centrifuge tubes. The supernatant was removed from each tube to provide red cell concentrate (RCC). […] For each washed RCC, cells were resuspended in 5 mL of the solution used for washing. This is now referred to as the RBC test sample. […] These samples were incubated for 20 hours at room temperature. After incubation, the RBC were washed in BBS (Blood Bank Saline, 0.9% saline, unbuffered, Fisher Scientific) and were diluted to a final hematocrit of 4%. A 25 μL aliquot of each was mixed with 15 μL of rabbit polyclonal anti-acridine sera diluted 1:100 in BBS and the mixture was incubated at 37° C. for 30 minutes. The cells were subsequently washed with 1.5 mL BBS. After washing was complete, the cells were mixed with 50 μL of FITC labeled goat anti-rabbit Fab′2 fragment (1:64 dilution in BBS) and incubated at 37° C. for 30 minutes. […] Note that the quenching improves as glutathione is neutralized with increasing amounts of sodium hydroxide.
The FACScan analysis of the binding of rabbit anti-acridine sera to treated red cells was used to assess a variety of quenching conditions. […] The tables represent data from two different experiments, each with samples treated under standard conditions or with 20 mM neutralized glutathione. […] The data within an experiment provides the relative efficacy of the various treatments. Because the assay may depend on the lot of red blood cells used, the absolute values of mean fluorescence may vary from one study to the next, such that relative values should only be compared within a given experiment. […] Neutralized glutathione at 20 mM results in close to background levels.
An untreated control sample as well as a standard sample (co-addition of 2 mM acidic glutathione with 0.2 mM PIC-1) were also assessed.
Full units of red cell concentrates (Interstate Blood Bank, Inc., Memphis, Tenn.) were leukoreduced. A volume of 200 mL of this RCC (80% hematocrit) was mixed with 94 mL of Erythrosol or 100 mL of Adsol (Baxter Healthcare Corp., Deerfield, Ill.) as control (unit 1). A volume of 20 mL 8% dextrose was used to dissolve PIC-1 (mg) and acid glutathione (mg) and added to one unit to provide 0.2 mM PIC-1 and 2 mM glutathione (unit 2). […] For the glutathione, 1.2 mL of 10 N NaOH was added (2 equivalents). The PIC-1 was mixed with the unit, followed 1 minute later (unit 3) or 5 minutes later (unit 4) by glutathione. For unit 5, neutralized glutathione was mixed first, followed 10 minutes later by the PIC-1. […] All units were mixed by grasping the ends of the blood bag and mixing in a FIG. 8 motion 30 times. These were then incubated at room temperature for 20 hours total. A compound adsorption device (CAD), comprising a polymeric resin contained within a mesh pouch, was used for all but the control sample. This device is intended to remove residual PIC-1, PIC-1 breakdown products, and glutathione from the samples. Samples were incubated for 8 hours, then transferred to a second blood bag containing the CAD and incubated for an additional 12 hours. Following the room temperature incubation, samples were transferred to a refrigerator (4° C.) and stored up to 43 days.

O=C(CCNc1c2ccccc2nc2ccccc12)OCCN(CCCl)CCCl [PIC-1]
mean fluorescence (16C day 14, unit 2: standard 0.2 mM PIC-1+2 mM GSH): 135.7
mean fluorescence (16C day 14, unit 3: 0.2 mM PIC-1, 1' delay, 20 mM GSH+2 eq base): 4.09
mean fluorescence (16C day 14, unit 4: 0.2 mM PIC-1, 5' delay, 20 mM GSH+2 eq base): 8.41
mean fluorescence (16C day 14, unit 5: 20 mM GSH+2 eq base, 10' delay, 0.2 mM PIC-1): 3.29
mean fluorescence (16C day 22, unit 2: standard 0.2 mM PIC-1+2 mM GSH): 90.8
mean fluorescence (16C day 22, unit 3: 0.2 mM PIC-1, 1' delay, 20 mM GSH+2 eq base): 2.61
mean fluorescence (16C day 22, unit 4: 0.2 mM PIC-1, 5' delay, 20 mM GSH+2 eq base): 4.46
mean fluorescence (16C day 22, unit 5: 20 mM GSH+2 eq base, 10' delay, 0.2 mM PIC-1): 2.12
mean fluorescence (16C day 28, unit 2: standard 0.2 mM PIC-1+2 mM GSH): 128.7
mean fluorescence (16C day 28, unit 3: 0.2 mM PIC-1, 1' delay, 20 mM GSH+2 eq base): 2.6
mean fluorescence (16C day 28, unit 4: 0.2 mM PIC-1, 5' delay, 20 mM GSH+2 eq base): 5.69
mean fluorescence (16C day 28, unit 5: 20 mM GSH+2 eq base, 10' delay, 0.2 mM PIC-1): 2.83
mean fluorescence (16C day 35, unit 2: standard 0.2 mM PIC-1+2 mM GSH): 153.4
mean fluorescence (16C day 35, unit 3: 0.2 mM PIC-1, 1' delay, 20 mM GSH+2 eq base): 2.74
mean fluorescence (16C day 35, unit 4: 0.2 mM PIC-1, 5' delay, 20 mM GSH+2 eq base): 6.71
mean fluorescence (16C day 35, unit 5: 20 mM GSH+2 eq base, 10' delay, 0.2 mM PIC-1): 2.58
mean fluorescence (16C day 43, unit 2: standard 0.2 mM PIC-1+2 mM GSH): 136.1
mean fluorescence (16C day 43, unit 3: 0.2 mM PIC-1, 1' delay, 20 mM GSH+2 eq base): 2.43
mean fluorescence (16C day 43, unit 4: 0.2 mM PIC-1, 5' delay, 20 mM GSH+2 eq base): 4.51
mean fluorescence (16C day 43, unit 5: 20 mM GSH+2 eq base, 10' delay, 0.2 mM PIC-1): 2.46
Mean fluorescence intensity (RBC CHES pH 9 3x wash, 0.2 mM PIC-1, 2 mM GSH): 12.1
Mean fluorescence intensity (RBC CHES pH 9 3x wash, 0.2 mM PIC-1, 20 mM GSH+0.9 eq NaOH): 3.9
Mean fluorescence intensity (RBC CHES pH 9 3x wash, 0.2 mM PIC-1, 20 mM GSH+1.5 eq NaOH): 1.9
Mean fluorescence intensity (RBC CHES pH 9 3x wash, 0.2 mM PIC-1, 20 mM GSH+2 eq NaOH): 1.9
Mean fluorescence intensity (RBC Erythrosol pH 7.3 3x wash, 0.2 mM PIC-1, 2 mM GSH): 199
Mean fluorescence intensity (RBC Erythrosol pH 7.3 3x wash, 0.2 mM PIC-1, 20 mM GSH+0.9 eq NaOH): 26.7
Mean fluorescence intensity (RBC Erythrosol pH 7.3 3x wash, 0.2 mM PIC-1, 20 mM GSH+1.5 eq NaOH): 4.9
Mean fluorescence intensity (RBC Erythrosol pH 7.3 3x wash, 0.2 mM PIC-1, 20 mM GSH+2 eq NaOH): 3.4
Mean fluorescence intensity (RBC PBS pH 8 3x wash, 0.2 mM PIC-1, 2 mM GSH): 25
Mean fluorescence intensity (RBC PBS pH 8 3x wash, 0.2 mM PIC-1, 20 mM GSH+0.9 eq NaOH): 7.2
Mean fluorescence intensity (RBC PBS pH 8 3x wash, 0.2 mM PIC-1, 20 mM GSH+1.5 eq NaOH): 5.1
Mean fluorescence intensity (RBC PBS pH 8 3x wash, 0.2 mM PIC-1, 20 mM GSH+2 eq NaOH): 5.1
Mean fluorescence intensity (RBC in Erythrosol pH 7.3 no wash, 0.2 mM PIC-1, 2 mM GSH): 108
Mean fluorescence intensity (RBC in Erythrosol pH 7.3 no wash, 0.2 mM PIC-1, 20 mM GSH+0.9 eq NaOH): 17.0
Mean fluorescence intensity (RBC in Erythrosol pH 7.3 no wash, 0.2 mM PIC-1, 20 mM GSH+1.5 eq NaOH): 8.1
Mean fluorescence intensity (RBC in Erythrosol pH 7.3 no wash, 0.2 mM PIC-1, 20 mM GSH+2 eq NaOH): 6.0
mean fluorescence (Table 9A: 0.2 mM PIC-1+2 mM GSH, 0 eq NaOH, no delay (standard)): 114
mean fluorescence (Table 9A: 5 mM Cys+2 eq NaOH, then 0.2 mM PIC-1 after 5 min): 8
mean fluorescence (Table 9A: 5 mM Cys+2 eq NaOH, then 0.2 mM PIC-1 after 10 min): 10.8
mean fluorescence (Table 9A: 5 mM Cys+2 eq NaOH, then 0.2 mM PIC-1 after 20 min): 8
mean fluorescence (Table 9A: 10 mM Cys+2 eq NaOH, then 0.2 mM PIC-1 after 10 min): 2.9
mean fluorescence (Table 9A: 15 mM Cys+2 eq NaOH, then 0.2 mM PIC-1 after 10 min): 1.9
mean fluorescence (Table 9A: 20 mM Cys+2 eq NaOH, then 0.2 mM PIC-1 after 5 min): 1.9
mean fluorescence (Table 9A: 20 mM Cys+2 eq NaOH, then 0.2 mM PIC-1 after 10 min): 1.9
mean fluorescence (Table 9A: 20 mM Cys+2 eq NaOH, then 0.2 mM PIC-1 after 20 min): 2
mean fluorescence (Table 9A: 20 mM GSH+2 eq NaOH, then 0.2 mM PIC-1 after 10 min): 2.6
mean fluorescence (Table 9A: […] Cys+2 eq NaOH, then 0.2 mM PIC-1 after 10 min): 37
mean fluorescence (Table 9B: 0.2 mM PIC-1+2 mM GSH, 0 eq NaOH, no delay (standard)): 160 and 151 and 182
mean fluorescence (Table 9B: 5 mM Cys+1 eq NaOH, then 0.2 mM PIC-1 after 10 min): 19.28
mean fluorescence (Table 9B: 5 mM Cys+2 eq NaOH, then 0.2 mM PIC-1 after 10 min): 14.1
mean fluorescence (Table 9B: 5 mM Cys, 0 eq NaOH, then 0.2 mM PIC-1 after 10 min): 49
mean fluorescence (Table 9B: 10 mM Cys+1 eq NaOH, then 0.2 mM PIC-1 after 10 min): 5.1
mean fluorescence (Table 9B: 10 mM Cys+2 eq NaOH, then 0.2 mM PIC-1 after 10 min): 3.6
mean fluorescence (Table 9B: 10 mM Cys, 0 eq NaOH, then 0.2 mM PIC-1 after 10 min): 11.6
mean fluorescence (Table 9B: 20 mM Cys+1 eq NaOH, then 0.2 mM PIC-1 after 10 min): 2.5
mean fluorescence (Table 9B: 20 mM Cys, 0 eq NaOH, then 0.2 mM PIC-1 after 10 min): 4.3
mean fluorescence (Table 9B: 20 mM GSH+2 eq NaOH, then 0.2 mM PIC-1 after 10 min): 6.06 and 5.62 and 5.6
mean fluorescence (Table 9B: […] Cys+1 eq NaOH, then 0.2 mM PIC-1 after 10 min): 49.5
mean fluorescence (Table 9B: […] Cys+2 eq NaOH, then 0.2 mM PIC-1 after 10 min): 49
mean fluorescence (Table 9B: […] Cys, 0 eq NaOH, then 0.2 mM PIC-1 after 10 min): 44
mean fluorescence (Table 11C: 2 mM GSH, 1 eq. base, then 0.2 mM PIC-1): 208.05
mean fluorescence (Table 11C: 2 mM GSH, 2 eq. base, then 0.2 mM PIC-1): 160.37
mean fluorescence (Table 11C: 2 mM GSH, no added base, then 0.2 mM PIC-1): 179.17
mean fluorescence (Table 11C: 5 mM GSH, 1 eq. base, then 0.2 mM PIC-1): 87.6
mean fluorescence (Table 11C: 5 mM GSH, 2 eq. base, then 0.2 mM PIC-1): 67.56
mean fluorescence (Table 11C: 5 mM GSH, no added base, then 0.2 mM PIC-1): 95.57
mean fluorescence (Table 11C: 10 mM GSH, 1 eq. base, then 0.2 mM PIC-1): 47.18
mean fluorescence (Table 11C: 10 mM GSH, 2 eq. base, then 0.2 mM PIC-1): 27.45
mean fluorescence (Table 11C: 10 mM GSH, no added base, then 0.2 mM PIC-1): 88.21
mean fluorescence (Table 11C: 20 mM GSH, 1 eq. base, then 0.2 mM PIC-1): 29.97
mean fluorescence (Table 11C: 20 mM GSH, 2 eq. base, then 0.2 mM PIC-1): 13.37
mean fluorescence (Table 11C: 20 mM GSH, no added base, then 0.2 mM PIC-1): 187.74
mean fluorescence (Table 11C: co-addition std., 2 mM acidic glutathione with 0.2 mM PIC-1): 144.33
